{"source": "PubChem BioAssay (NCI)", "assay_in_all_cases": "NCI tumour cell line growth inhibition, 48 h", "key": {"RXF-631 renal": {"test_system": "RXF-631 renal"}, "XF 498 CNS": {"test_system": "XF 498 CNS"}, "LXFL 529 NSCLC": {"test_system": "LXFL 529 NSCLC"}, "HS 578T breast": {"test_system": "HS 578T breast"}, "PC-3 prostate": {"test_system": "PC-3 prostate"}, "DU-145 prostate": {"test_system": "DU-145 prostate"}, "MDA-MB-231 breast": {"test_system": "MDA-MB-231 breast"}, "MDA-N": {"test_system": "MDA-N"}, "T-47D breast": {"test_system": "T-47D breast"}, "P388/ADR leukemia": {"test_system": "P388/ADR leukemia"}, "SN12K1 renal": {"test_system": "SN12K1 renal"}, "P388 leukemia": {"test_system": "P388 leukemia"}, "786-0 renal": {"test_system": "786-0 renal"}}, "note": "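These data come from cells grown in 96-well plates and exposed to compound for 48 hours at five concentrations. At the TGI there is no net growth.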"}
{"smiles": "CC(=O)OC1/C=C(\\C)C(OC(C)=O)C/C=C(/C)CCC2C(/C=C/C1=O)C2(C)C", "note": "(centres undefined)", "values": [{"measurement": "TGI", "setting": "RXF-631 renal", "value": "> 100", "unit": "µM"}, {"measurement": "TGI", "setting": "XF 498 CNS", "value": "> 100", "unit": "µM"}, {"measurement": "TGI", "setting": "LXFL 529 NSCLC", "value": "> 100", "unit": "µM"}]}
{"smiles": "NC(CCCCCP(=O)(c1ccccc1)C1C=CC=CC1)C(=O)O", "note": "(centres undefined)", "values": [{"measurement": "TGI", "setting": "HS 578T breast", "value": "> 100", "unit": "µM"}, {"measurement": "TGI", "setting": "PC-3 prostate", "value": "> 100", "unit": "µM"}, {"measurement": "TGI", "setting": "DU-145 prostate", "value": "> 100", "unit": "µM"}, {"measurement": "TGI", "setting": "MDA-MB-231 breast", "value": "> 100", "unit": "µM"}, {"measurement": "TGI", "setting": "MDA-N", "value": "> 100", "unit": "µM"}, {"measurement": "TGI", "setting": "T-47D breast", "value": "> 100", "unit": "µM"}]}
{"smiles": "CCCC(=O)OCC1OC(n2ccc(N)nc2=O)C(OC(=O)CCC)C1OC(=O)CCC", "note": "(centres undefined)", "values": [{"measurement": "TGI", "setting": "P388/ADR leukemia", "value": "> 100", "unit": "µM"}, {"measurement": "TGI", "setting": "SN12K1 renal", "value": "> 100", "unit": "µM"}, {"measurement": "TGI", "setting": "P388 leukemia", "value": 13.9, "unit": "µM"}]}
{"smiles": "CC(C)Cc1ccc(C(C)C(=O)N2CCN(/C=C/c3ccccc3)CC2)cc1", "note": "(centres undefined)", "values": [{"measurement": "TGI", "setting": "XF 498 CNS", "value": 27.3, "unit": "µM"}, {"measurement": "TGI", "setting": "P388/ADR leukemia", "value": 42.1, "unit": "µM"}, {"measurement": "TGI", "setting": "SN12K1 renal", "value": 27.1, "unit": "µM"}, {"measurement": "TGI", "setting": "P388 leukemia", "value": 29.8, "unit": "µM"}]}
{"smiles": "COc1ccc(/C=C2\\CCNC2=O)cc1", "values": [{"measurement": "TGI", "setting": "XF 498 CNS", "value": "> 100", "unit": "µM"}, {"measurement": "TGI", "setting": "P388/ADR leukemia", "value": "> 100", "unit": "µM"}, {"measurement": "TGI", "setting": "SN12K1 renal", "value": "> 100", "unit": "µM"}, {"measurement": "TGI", "setting": "P388 leukemia", "value": "> 100", "unit": "µM"}]}
{"smiles": "O=c1sc2ccccc2n1CC1CS1", "note": "(centres undefined)", "values": [{"measurement": "TGI", "setting": "XF 498 CNS", "value": "> 100", "unit": "µM"}]}
{"smiles": "O=C1c2cccc3c2C(=O)c2c(cccc21)OCCOCCOCCOCCO3", "values": [{"measurement": "TGI", "setting": "RXF-631 renal", "value": "> 100", "unit": "µM"}, {"measurement": "TGI", "setting": "LXFL 529 NSCLC", "value": "> 100", "unit": "µM"}]}
{"smiles": "CCN(CC)CCNc1ccc2nnn3c4ccc(OCCN(CC)CC)cc4c(=O)c1c23", "values": [{"measurement": "TGI", "setting": "HS 578T breast", "value": "> 100", "unit": "µM"}, {"measurement": "TGI", "setting": "786-0 renal", "value": "> 100", "unit": "µM"}, {"measurement": "TGI", "setting": "DU-145 prostate", "value": "> 100", "unit": "µM"}, {"measurement": "TGI", "setting": "MDA-MB-231 breast", "value": "> 100", "unit": "µM"}, {"measurement": "TGI", "setting": "MDA-N", "value": "> 100", "unit": "µM"}, {"measurement": "TGI", "setting": "T-47D breast", "value": "> 100", "unit": "µM"}]}
{"smiles": "O=P(O)(O)CCP(=O)(O)O", "values": [{"measurement": "TGI", "setting": "HS 578T breast", "value": "> 100", "unit": "µM"}, {"measurement": "TGI", "setting": "PC-3 prostate", "value": "> 100", "unit": "µM"}, {"measurement": "TGI", "setting": "786-0 renal", "value": "> 100", "unit": "µM"}, {"measurement": "TGI", "setting": "DU-145 prostate", "value": "> 100", "unit": "µM"}, {"measurement": "TGI", "setting": "MDA-MB-231 breast", "value": "> 100", "unit": "µM"}, {"measurement": "TGI", "setting": "MDA-N", "value": "> 100", "unit": "µM"}, {"measurement": "TGI", "setting": "T-47D breast", "value": "> 100", "unit": "µM"}]}
{"smiles": "CCOc1ncn(-c2ccc(NC(=S)Nc3ncccn3)cc2)n1", "values": [{"measurement": "TGI", "setting": "PC-3 prostate", "value": "> 100", "unit": "µM"}, {"measurement": "TGI", "setting": "DU-145 prostate", "value": "> 100", "unit": "µM"}, {"measurement": "TGI", "setting": "MDA-MB-231 breast", "value": 64.6, "unit": "µM"}, {"measurement": "TGI", "setting": "T-47D breast", "value": 62.2, "unit": "µM"}]}
{"smiles": "O=c1cc[nH]c(=O)[nH]1", "values": [{"measurement": "TGI", "setting": "XF 498 CNS", "value": 7.72, "unit": "µM"}, {"measurement": "TGI", "setting": "P388/ADR leukemia", "value": 807, "unit": "µM"}, {"measurement": "TGI", "setting": "SN12K1 renal", "value": 994, "unit": "µM"}, {"measurement": "TGI", "setting": "P388 leukemia", "value": 447, "unit": "µM"}]}
